From patent US20230025836A1, “EYE DROP COMPOSITION FOR PREVENTING OR TREATING EYE DISEASE” (Samjin Pharmaceutical Co., Ltd., priority 2019, published 2023)
≈ marks a conversion by molar mass, not a printed value.

Experiment: Solubility of the active material in water
Format: physicochemical
Text: In one embodiment, the eye drop may comprise the above-described solubilizing agent, so that an active ingredient thereof may be well dissolved and may not be precipitated even after long-term storage, thus resulting in better physical stability and chemical stability. In one embodiment, a concentration of the solubilizing agent in the eye drop may be 0.1 w/v % to 25.0 w/v %. In one embodiment, the type of the solubilizing agent may not be particularly limited, but may include, for example, at least one selected from the group consisting of surfactants, solvents, and mixtures thereof as follows. […] Thus, in one embodiment, the eye drop may comprise the solubilizing agent to dissolve 3-phenyl-4-propyl-1-(pyridin-2-yl)-1H-pyrazol-5-ol by 0.1% (1,000 μg/mL) to 2.0% (20,000 μg/mL).

CCCc1c(-c2ccccc2)nn(-c2ccccn2)c1O [3-phenyl-4-propyl-1-(pyridin-2-yl)-1H-pyrazol-5-ol] gave a solubility of about 3.4 µg/mL (≈ 12.2 µM).
